Data as given in patent US4112228A, “7-(D-α-Hydroxy-2-arylacetamido)-3-(2-carboxyalkyl-2,3-dihydro-s-tri azolo-[4,3-b]pyridazin-3-on-6-ylthiomethyl)-3-cephem-4-carboxylic acids and derivatives” (priority 1977, dated 1978).
Converted amounts (≈) assume the structure as drawn.

Legend:
E. coli Juhl = test: Standard experimental infection in mice; type: in vivo; conditions: Table 6
Klebsiella sp. = test: MIC by Steers' agar dilution method
P. stuartii = test: MIC by Steers' agar dilution method; conditions: Providencia stuartii
Sal. anthracis = test: microbe, parasite or virus in culture; type: cell-based
[1] = Stability in solution (remaining activity by paper disc assay); type: physicochemical; conditions: for Remaining Activity (%): 0 days; for remaining at 48 h: 2 days; for remaining at 72 h: 3 days; for remaining at 168 h: 7 days
Description: Stability of BB-[…] was determined in both a 10% and an 0.02% solution. The stability is indicated as the relative activity remaining in the test solution at given periods to the initial solution. The activity was assayed using paper discs on B. subtilis PCI 219 plate (pH 6).

Pr. mirabilis = test: MIC by Steers' agar dilution method; conditions: Proteus mirabilis
Pr. morganii = test: MIC by Steers' agar dilution method; conditions: Morganella morganii
[2] = 0.02% solution, pH 4 (0.1 M AcOH - NaOAc buffer)
[3] = 0.02% solution, pH 7 (0.1 M phosphate buffer)
[4] = 0.1 m nh4oh-nh4cl buffer, 0.02% solution, pH 9 (0.1 M NH4 OH--NH4 Cl buffer)
[5] = 10% aqueous solution, room temperature, pH 6.1 (unadjusted)

O=C(O)Cn1nc2ccc(SCC3=C(C(=O)O)N4C(=O)C(NC(=O)[C@H](O)c5ccccc5)[C@H]4SC3)nn2c1=O (stereo partly drawn) [BB-S488, 7-(D-Mandelamido)-3-(2-carboxymethyl-2,3-dihydro-s-triazolo[4,3-b]pyridazin-3-on-6-ylthiomethyl)-3-cephem-4-carboxylic Acid]
No. of survivors/No. tested (E. coli Juhl; 0.1 mg./kg.): 2/5 | No. of survivors/No. tested (E. coli Juhl; 0.4 mg./kg.): 5/5 | No. of survivors/No. tested (E. coli Juhl; 1.6 mg./kg.): 5/5 | No. of survivors/No. tested (E. coli Juhl; 6.3 mg./kg.): 5/5 | No. of survivors/No. tested (E. coli Juhl; 25 mg./kg.): 5/5 | ED50 (E. coli Juhl; Escherichia coli, read-out: PD50): 0.12 mg/kg | MIC (Klebsiella sp.; Kx-2 A9662, MHA, Table 3): 0.4 µg/mL (≈ 0.699 µM) | MIC (Klebsiella sp.; Kx-3 A20346 (β-lactamase), HIA, Table 4): 0.2 µg/mL (≈ 0.349 µM) | MIC (Klebsiella sp.; Kx-3 A20346 (β-lactamase), MHA, Table 4): 0.2 µg/mL (≈ 0.349 µM) | MIC (Klebsiella sp.; Kx-3 A20346 (β-lactamase), NA, Table 4): 0.2 µg/mL (≈ 0.349 µM) | MIC (Klebsiella sp.; Kx-3 A20346, MHA, Table 3): 0.2 µg/mL (≈ 0.349 µM) | MIC (P. stuartii; Ps-1 A20745, HIA, Table 4): 50 µg/mL (≈ 87.3 µM) | MIC (P. stuartii; Ps-1 A20745, MHA, Table 3): 0.4 µg/mL (≈ 0.699 µM) | MIC (P. stuartii; Ps-1 A20745, MHA, Table 4): 12.5 µg/mL (≈ 21.8 µM) | MIC (P. stuartii; Ps-1 A20745, NA, Table 4): 50 µg/mL (≈ 87.3 µM) | MIC (P. stuartii; Ps-2 A20894, HIA, Table 4): 0.4 µg/mL (≈ 0.699 µM) | MIC (P. stuartii; Ps-2 A20894, MHA, Table 3): 0.2 µg/mL (≈ 0.349 µM) | MIC (P. stuartii; Ps-2 A20894, MHA, Table 4): 0.2 µg/mL (≈ 0.349 µM) | MIC (P. stuartii; Ps-2 A20894, NA, Table 4): 0.8 µg/mL (≈ 1.4 µM) | MIC (P. stuartii; Ps-3 A20911 (β-lactamase), HIA, Table 4): 25 µg/mL (≈ 43.7 µM) | MIC (P. stuartii; Ps-3 A20911 (β-lactamase), MHA, Table 4): 12.5 µg/mL (≈ 21.8 µM) | MIC (P. stuartii; Ps-3 A20911 (β-lactamase), NA, Table 4): 50 µg/mL (≈ 87.3 µM) | MIC (P. stuartii; Ps-3 A20911, MHA, Table 3): 0.8 µg/mL (≈ 1.4 µM) | MIC (P. stuartii; Ps-4 A21051, MHA, Table 3): 50 µg/mL (≈ 87.3 µM) | MIC (P. stuartii; Ps-5 A21057, MHA, Table 3): 0.2 µg/mL (≈ 0.349 µM) | MIC (Sal. anthracis): 0.1 µg/mL (≈ 0.175 µM) | Remaining Activity (%) [1, 2]: 100% | remaining at 48 h [1, 2]: 93% | remaining at 72 h [1, 2]: 78% | remaining at 168 h [1, 2]: 102% | Remaining Activity (%) [1, 3]: 100% | remaining at 48 h [1, 3]: 87% | remaining at 72 h [1, 3]: 64% | remaining at 168 h [1, 3]: 56% | Remaining Activity (%) ([1]; 0.02% solution, pH 9 (0.1 M NH4 OH--NH4 Cl buffer)): 100% | remaining at 24 h ([1]; 0.1 m nh4oh-nh4cl buffer, 0.02% solution, pH 9 (0.1 M NH4 OH--NH4 Cl buffer), 1 day): 20% | remaining at 48 h [1, 4]: 14% | remaining at 72 h [1, 4]: 13% | remaining at 168 h [1, 4]: 0% | Remaining Activity (%) [1, 5]: 100% | remaining at 48 h [1, 5]: 128% | remaining at 72 h [1, 5]: 90% | remaining at 168 h [1, 5]: 116% | MIC (Pr. mirabilis; A9554, MHA, Table 1): 0.05 µg/mL (≈ 0.0873 µM) | MIC (Pr. mirabilis; A9900, MHA, Table 1): 0.1 µg/mL (≈ 0.175 µM) | MIC (Pr. mirabilis; Pm-1 A9554, HIA, Table 4): 0.1 µg/mL (≈ 0.175 µM) | MIC (Pr. mirabilis; Pm-1 A9554, MHA, Table 3): 0.1 µg/mL (≈ 0.175 µM) | MIC (Pr. mirabilis; Pm-1 A9554, MHA, Table 4): 0.1 µg/mL (≈ 0.175 µM) | MIC (Pr. mirabilis; Pm-1 A9554, NA, Table 4): 0.1 µg/mL (≈ 0.175 µM) | MIC (Pr. mirabilis; Pm-2 A9900, HIA, Table 4): 0.2 µg/mL (≈ 0.349 µM) | MIC (Pr. mirabilis; Pm-2 A9900, MHA, Table 3): 0.2 µg/mL (≈ 0.349 µM) | MIC (Pr. mirabilis; Pm-2 A9900, MHA, Table 4): 0.2 µg/mL (≈ 0.349 µM) | MIC (Pr. mirabilis; Pm-2 A9900, NA, Table 4): 0.1 µg/mL (≈ 0.175 µM) | MIC (Pr. mirabilis; Pm-3 A20119, MHA, Table 3): 0.4 µg/mL (≈ 0.699 µM) | MIC (Pr. mirabilis; Pm-4 A20454, MHA, Table 3): 0.2 µg/mL (≈ 0.349 µM) | MIC (Pr. mirabilis; Pm-5 A9702, MHA, Table 3): 0.1 µg/mL (≈ 0.175 µM) | MIC (Pr. mirabilis; Pm-6 A21222, MHA, Table 3): 1.6 µg/mL (≈ 2.79 µM) | MIC (Pr. mirabilis; strain not given (1st of 2), MHA, Example 10): 0.05 µg/mL (≈ 0.0873 µM) | MIC (Pr. mirabilis; strain not named (2nd of 2), MHA, Example 10): 0.05 µg/mL (≈ 0.0873 µM) | MIC (Pr. morganii; A9553, MHA, Table 1): > 100 µg/mL | MIC (Pr. morganii; A20031, MHA, Table 1): 0.1 µg/mL (≈ 0.175 µM) | MIC (Pr. morganii; Pg-1 A9553 (β-lactamase), HIA, Table 4): > 100 µg/mL | MIC (Pr. morganii; Pg-1 A9553 (β-lactamase), MHA, Table 4): > 100 µg/mL | MIC (Pr. morganii; Pg-1 A9553 (β-lactamase), NA, Table 4): > 100 µg/mL | MIC (Pr. morganii; Pg-1 A9553, MHA, Table 3): > 100 µg/mL | MIC (Pr. morganii; Pg-2 A20031, HIA, Table 4): 0.2 µg/mL (≈ 0.349 µM) | MIC (Pr. morganii; Pg-2 A20031, MHA, Table 3): 0.2 µg/mL (≈ 0.349 µM) | MIC (Pr. morganii; Pg-2 A20031, MHA, Table 4): 0.1 µg/mL (≈ 0.175 µM) | MIC (Pr. morganii; Pg-2 A20031, NA, Table 4): 0.2 µg/mL (≈ 0.349 µM)
